Source: patent US7638510B2, “Use of s-10-hydroxy-10,11-dihydro-carbamazepine for the treatment of anxiety and bipolar disorders” (Novartis AG, priority 2003, dated 2009)

Tested on: rat
Experiment: Vogel conflict test (punished drinking)
Format: in vivo
Details: for PUNISHED DRINKING (number of shocks) mean ± s.e.m.: 3 minute period; for PUNISHED DRINKING % change from control: vs vehicle; for efficacy compared between racemate and enantiomers: 50-200 mg/kg p.o.; for efficacy compared with the positive control clobazam: 50-200 mg/kg p.o. vs clobazam 64 mg/kg
Experimental: a) Description of method: The method, which detects anxiolytic and related other psychiatric activity, follows that described by Vogel et al, Psychopharmacologia 1971; 21:1-7 Anxiolytics and antidepressants (e.g., Fontana et al., Psychopharmacology 1989; 98(2):157-62) of various classes increase punished drinking.
Rats are deprived of water for 48 hours and are then placed individually into a transparent Plexiglas enclosure (15×32×34 cm) with a floor consisting of stainless steel bars (0.4 cm) spaced 1 cm apart The back wall of the enclosure is made of opaque Plexiglass thereby concealing the observer from the experimental animal. In the centre of the opposite wall, 5 cm above the floor, a metal water spout protrudes into the cage and is connected to one pole of a shock generator (Apelex: Type 011346). The other pole of the shock generator is connected to the metal grid floor. The rat is left to explore until it found the water spout. Then, every time it drinks, it receives a slight electric shock (1.7 mA, 1 sec.) 2 seconds after it starts lapping. The number of shocks received (punished drinkings) is counted during a 3 minute period. 15 rats are studied per group. The test is performed blind. Compounds are evaluated at 50, 100 and 200 mg/kg, administered p.o. 60 minutes before the test, and compared with a vehicle control group. Clobazam (64 mg/kg), administered under the same experimental conditions, is used as reference substance. All substances are evaluated within the same experiment and compared with the same vehicle and reference substance controls. Data are analyzed by comparing treated groups with vehicle control using unpaired Student's t tests.

**Q.** With NC(=O)N1c2ccccc2CC(O)c2ccccc21 (racemic) [M3, 10-hydroxy-10,11-dihydro-carbamazepine] as the molecule, how does the “PUNISHED DRINKING (number of shocks) mean ± s.e.m.” value (50 mg/kg p.o. -60 min) read?
**A.** The value was 5.9 ± 0.5 number of shocks.

**Q.** What about the “PUNISHED DRINKING % change from control” value (50 mg/kg p.o. -60 min) of the same molecule?
**A.** The value was “+34%”.

**Q.** And the “PUNISHED DRINKING (number of shocks) mean ± s.e.m.” value (100 mg/kg p.o. -60 min)?
**A.** The value was 8.4 ± 1.0 number of shocks.

**Q.** And the “PUNISHED DRINKING % change from control” value (100 mg/kg p.o. -60 min)?
**A.** The value was “+91%”.

**Q.** What about the “PUNISHED DRINKING (number of shocks) mean ± s.e.m.” value (200 mg/kg p.o. -60 min) of the same molecule?
**A.** Its value is 10.4 ± 1.5 number of shocks.

**Q.** And the “PUNISHED DRINKING % change from control” value (200 mg/kg p.o. -60 min)?
**A.** Its value is “+136%”.

**Q.** And the “efficacy compared between racemate and enantiomers” value?
**A.** The value was “between that of the R- and S-enantiomers”.

**Q.** How did the “PUNISHED DRINKING (number of shocks) mean ± s.e.m.” value (64 mg/kg p.o. -60 min) turn out when CN1C(=O)CC(=O)N(c2ccccc2)c2cc(Cl)ccc21 [CLOBAZAM, Clobazam, reference compound] was run?
**A.** Its value is 8.2 ± 1.1 number of shocks.

**Q.** What about the “PUNISHED DRINKING % change from control” value (64 mg/kg p.o. -60 min) of the same molecule?
**A.** Its value is “+86%”.

**Q.** Which results are given for NC(=O)N1c2ccccc2C[C@@H](O)c2ccccc21 [M4, R(−)-10,11-dihydro-10-hydroxy-5H-dibenzo[b,f]azepine-5-carboxamide]?
**A.** PUNISHED DRINKING (number of shocks) mean ± s.e.m. (50 mg/kg p.o. -60 min): 5.0 ± 0.4 NS number of shocks; PUNISHED DRINKING % change from control (50 mg/kg p.o. -60 min): +14%; PUNISHED DRINKING (number of shocks) mean ± s.e.m. (100 mg/kg p.o. -60 min): 5.5 ± 0.5 NS number of shocks; PUNISHED DRINKING % change from control (100 mg/kg p.o. -60 min): +25%; PUNISHED DRINKING (number of shocks) mean ± s.e.m. (200 mg/kg p.o. -60 min): 7.4 ± 1.3 number of shocks; PUNISHED DRINKING % change from control (200 mg/kg p.o. -60 min): +68%; efficacy compared between racemate and enantiomers: less efficacious than the S-enantiomer at the lowest dose used; efficacy compared with the positive control clobazam: less than that of the positive control

**Q.** Which “PUNISHED DRINKING (number of shocks) mean ± s.e.m.” value (50 mg/kg p.o. -60 min) does the source give for NC(=O)N1c2ccccc2C[C@H](O)c2ccccc21 [M5, S(+)-10,11-dihydro-10-hydroxy-5H-dibenzo[b,f]azepine-5-carboxamide] here?
**A.** The value was 8.4 ± 1.3 number of shocks.

**Q.** And the “PUNISHED DRINKING % change from control” value (50 mg/kg p.o. -60 min)?
**A.** Its value is “+91%”.

**Q.** And the “PUNISHED DRINKING (number of shocks) mean ± s.e.m.” value (100 mg/kg p.o. -60 min)?
**A.** The value was 9.5 ± 1.0 number of shocks.

**Q.** What about the “PUNISHED DRINKING % change from control” value (100 mg/kg p.o. -60 min) of the same molecule?
**A.** Its value is “+116%”.

**Q.** What about the “PUNISHED DRINKING (number of shocks) mean ± s.e.m.” value (200 mg/kg p.o. -60 min) of the same molecule?
**A.** The value was 10.5 ± 1.3 number of shocks.

**Q.** What about the “PUNISHED DRINKING % change from control” value (200 mg/kg p.o. -60 min) of the same molecule?
**A.** The value was “+139%”.

**Q.** And the “efficacy compared with the positive control clobazam” value?
**A.** Its value is “surpasses that of clobazam at all doses tested”.
